Measured values as given in paper PMC8471380 (Molecules, 2021).
Structures can show the parent of a compound that is named as a salt.

Assays:
[1] = target: T1, MK-801-binding (intrachannel) site of NMDA receptor (Rattus norvegicus, UniProt P35439); test: Radioligand binding assay, [3H]MK-801 displacement
T1 construct: from tissue; host or cells: rat hippocampus membranes
Protocol: (§1) The effect of the test compounds on radioligand binding to NMDA receptors was evaluated by a modified method, as previously reported [83]. The following two radioligands were used: [^3H] […] A hippocampal membrane preparation for the radioligand binding assay was made as described previously [86, 87]. The obtained membrane pellet was resuspended in a working buffer (5 mM HEPES/4.5 mM Tris, pH 7.6 at 4 °C) in a ratio of 1:5 and stored in liquid nitrogen. The reaction mixture (the final volume was 0.5 mL) contained the working buffer (200 μL), a 50 nM radioligand solution (50 μL) and the membrane suspension (250 μL). The nonspecific binding was evaluated in the presence of 1 mM of the unlabeled ligand (50 μL).
(§2) For the binding assay, the reaction mixture was incubated at room temperature for 2 h. After the incubation, the samples were filtered through GF/B glass fiber filters (Whatman), washed with the working buffer, dried and transferred to scintillation vials. Then the scintillation fluid (5 mL), which is composed of diphenyloxazole (PPO) (4 g) and bis(5-phenyl-2-oxazolyl)benzene (POPOP) (0.2 g) in toluene (1 L) were added to the vials.
(§3) The effect of the test compounds on the binding of [^3H] […] The values of Ki were calculated according to a previously described method [88].

equine serum BChE = target: T2, equine serum BChE (Equus caballus, UniProt P81908); test: biochemical; settings: mean ± SEM, n = 3; for IC50: 5 min incubation
T2 construct: equine serum BChE; purchased Sigma; host or cells: equine serum
T2 sequence (P81908 whole entry): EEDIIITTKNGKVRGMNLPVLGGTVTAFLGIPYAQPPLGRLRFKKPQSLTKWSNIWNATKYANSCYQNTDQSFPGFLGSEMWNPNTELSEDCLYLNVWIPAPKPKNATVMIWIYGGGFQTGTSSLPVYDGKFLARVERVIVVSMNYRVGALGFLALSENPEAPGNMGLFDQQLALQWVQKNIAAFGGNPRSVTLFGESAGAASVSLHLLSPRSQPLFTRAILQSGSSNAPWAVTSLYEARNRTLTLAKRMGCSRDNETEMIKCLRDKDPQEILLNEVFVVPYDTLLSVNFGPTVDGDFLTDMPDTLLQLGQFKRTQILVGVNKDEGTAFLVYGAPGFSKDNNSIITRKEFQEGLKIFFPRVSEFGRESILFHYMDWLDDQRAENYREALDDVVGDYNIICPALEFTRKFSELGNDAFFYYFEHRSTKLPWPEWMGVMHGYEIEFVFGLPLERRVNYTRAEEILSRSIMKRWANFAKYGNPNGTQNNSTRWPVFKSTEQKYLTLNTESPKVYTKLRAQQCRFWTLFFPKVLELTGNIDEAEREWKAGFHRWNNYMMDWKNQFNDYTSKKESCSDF
Protocol: (§4) Reagents blanks consisted of reaction mixtures without substrates. […] Final enzyme and substrate concentrations were 0.02 unit/mL and 1 mM, respectively. Assays were carried out with a blank containing all constituents except porcine CES to assess non-enzymatic hydrolysis. The measurements were performed on a FLUOstar OPTIMA multifunctional microplate reader (BMG LABTECH, Ortenberg, Germany). The compounds were dissolved in DMSO. The incubation mixture contained 2% (v/v) of the solvent. […] The sample of the appropriate enzyme was incubated with the test compound for 5 min, and then the residual enzymatic activity was determined. Each experiment was performed in triplicate. […] Each experiment was performed in triplicate. The IC50 values were calculated with Origin 6.1 software.

[2] = tested on: tubulin and microtubule-associated proteins (Tb+MAP); test: GTP-dependent Tb+MAP polymerization; type: biochemical, mouse; settings: 100 µM compound; for Rate of Tb+MAP Polymerization (dA355/dt): 0.1 mM GTP, 37 °C
Excerpt: A crude fraction of tubulin and microtubule-associated proteins (Tb+MAP) was isolated from mouse brain tissue by a polymerization–depolymerization method. The procedure of mouse euthanasia using cervical dislocation for Tb+MAP preparation is in compliance with the Guidelines for Animal Experiments, which were approved by the local bioethics committee of the IPAC RAS. The freshly dissected brain was immediately placed on ice, cleared of meninges and surface blood vessels, and washed with cold buffer A (50 mM Tris-HCl, pH 6.9 at 4 °C, 2 mM EGTA). The extracted brain tissue was homogenized under ice cooling in the same buffer using a Potter S homogenizer (Sartorius). The resulting homogenate was centrifuged at 10,000× g for 30 min on an Avanti 25 centrifuge (Beckman) using a JA-14 rotor for the precipitation of non-ruptured cells. The precipitate was discarded, and the supernatant was again centrifuged at 100,000× g for 60 min at 4 °C on an Optima MAX XP centrifuge (Beckman) using a MLA-50 rotor. The precipitate was again discarded. The protein concentration in the supernatant was determined by the Bradford assay using the Bio-Rad Protein Assay kit (Bio-Rad, Hercules, CA, USA) according to manufacturer’s instructions. The resulting supernatant was a cytosolic fraction enriched in microtubular proteins (Tb and MAP).
The Tb+MAP preparation was centrifuged at 5000× g for 10 min at 4 °C immediately before polymerization in order to remove denatured and aggregated protein molecules by precipitation. The Tb+MAP polymerization was performed at 37 °C in buffer A in the presence of 0.1 mM GTP after addition of 100 µM of test compound or the same volume of vehicle (DMSO). The protein concentration in the sample was 0.2 mg/mL. The polymerization kinetics was monitored on a Victor 3 or EnVision microplate reader (Perkin Elmer, USA) at 355 nm and the stabilized rate of polymerization after the first wave was measured (dA355/dt).

[3] = target: T3, ifenprodil-binding site of NMDA receptor (NR2B subunit) (Rattus norvegicus, UniProt P35439+Q00960); test: Radioligand binding assay, [3H]ifenprodil displacement
T3 construct: from tissue; host or cells: rat hippocampus membranes
T3 sequence (Q00960 27-1482, other chains not shown): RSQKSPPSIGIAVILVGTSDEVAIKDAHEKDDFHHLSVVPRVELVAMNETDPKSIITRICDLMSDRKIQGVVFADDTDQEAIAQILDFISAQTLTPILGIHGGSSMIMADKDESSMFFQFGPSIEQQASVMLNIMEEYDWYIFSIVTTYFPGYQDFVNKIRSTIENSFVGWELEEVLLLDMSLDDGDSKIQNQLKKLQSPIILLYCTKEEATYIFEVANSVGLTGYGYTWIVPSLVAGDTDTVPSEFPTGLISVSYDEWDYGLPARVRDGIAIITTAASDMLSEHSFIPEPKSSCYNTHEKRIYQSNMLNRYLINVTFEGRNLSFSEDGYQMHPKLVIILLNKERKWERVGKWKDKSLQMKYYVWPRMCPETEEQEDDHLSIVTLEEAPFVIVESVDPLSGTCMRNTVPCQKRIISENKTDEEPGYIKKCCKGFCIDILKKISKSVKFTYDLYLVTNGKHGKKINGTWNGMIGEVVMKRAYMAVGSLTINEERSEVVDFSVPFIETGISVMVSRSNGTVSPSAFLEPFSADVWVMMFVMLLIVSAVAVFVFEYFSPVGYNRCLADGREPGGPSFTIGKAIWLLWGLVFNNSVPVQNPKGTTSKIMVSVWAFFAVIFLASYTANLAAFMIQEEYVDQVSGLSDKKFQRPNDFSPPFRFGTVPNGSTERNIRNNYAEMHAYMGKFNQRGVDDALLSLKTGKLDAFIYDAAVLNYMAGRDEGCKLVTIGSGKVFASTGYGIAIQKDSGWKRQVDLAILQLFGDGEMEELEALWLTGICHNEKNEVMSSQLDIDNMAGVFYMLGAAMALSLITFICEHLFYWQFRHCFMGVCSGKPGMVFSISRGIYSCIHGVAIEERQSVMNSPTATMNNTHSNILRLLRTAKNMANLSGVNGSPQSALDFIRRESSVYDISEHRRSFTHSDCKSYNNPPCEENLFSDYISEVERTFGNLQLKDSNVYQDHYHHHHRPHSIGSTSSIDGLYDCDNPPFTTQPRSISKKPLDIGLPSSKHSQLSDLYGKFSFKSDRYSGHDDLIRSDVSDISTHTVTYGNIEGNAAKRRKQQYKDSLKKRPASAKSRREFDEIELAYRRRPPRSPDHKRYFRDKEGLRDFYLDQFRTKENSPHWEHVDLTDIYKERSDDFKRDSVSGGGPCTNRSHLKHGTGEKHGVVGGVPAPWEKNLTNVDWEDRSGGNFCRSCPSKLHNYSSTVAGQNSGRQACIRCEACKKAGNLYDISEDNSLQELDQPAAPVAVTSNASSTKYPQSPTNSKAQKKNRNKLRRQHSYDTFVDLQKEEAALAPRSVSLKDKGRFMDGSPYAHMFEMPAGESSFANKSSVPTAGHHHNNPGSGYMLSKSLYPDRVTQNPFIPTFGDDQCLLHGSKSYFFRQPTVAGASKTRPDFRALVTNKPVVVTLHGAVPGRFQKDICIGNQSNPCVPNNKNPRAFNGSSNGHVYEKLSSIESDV
Protocol: as §1, §2, §3

porcine liver CES = target: T4, porcine liver CES (Sus scrofa, UniProt Q29550); test: CES inhibition, 4-nitrophenyl acetate hydrolysis; type: biochemical; settings: for inhibition at 20 µM: read-out: % of inhibition of CES with 20 µM concentration of the compound
T4 sequence (Q29550 19-566): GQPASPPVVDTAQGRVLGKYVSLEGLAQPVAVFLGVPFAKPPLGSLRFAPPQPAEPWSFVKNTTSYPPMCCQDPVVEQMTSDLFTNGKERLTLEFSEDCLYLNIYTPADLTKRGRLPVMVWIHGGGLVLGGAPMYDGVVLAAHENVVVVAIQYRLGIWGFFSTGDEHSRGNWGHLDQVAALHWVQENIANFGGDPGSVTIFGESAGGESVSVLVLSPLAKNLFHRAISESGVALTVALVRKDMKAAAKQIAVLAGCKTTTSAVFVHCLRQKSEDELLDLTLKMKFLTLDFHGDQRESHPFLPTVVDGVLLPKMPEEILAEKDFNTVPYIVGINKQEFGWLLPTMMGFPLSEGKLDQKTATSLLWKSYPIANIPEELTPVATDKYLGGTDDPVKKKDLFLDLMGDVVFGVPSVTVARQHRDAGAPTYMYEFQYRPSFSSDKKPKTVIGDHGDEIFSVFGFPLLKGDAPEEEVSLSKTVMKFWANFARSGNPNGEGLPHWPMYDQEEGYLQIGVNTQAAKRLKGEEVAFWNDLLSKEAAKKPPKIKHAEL
Protocol: as §4

PAS of EeAChE = target: T5, PAS of EeAChE (Electrophorus electricus, UniProt O42275); type: binding; settings: 20 µM compound; 7 µM EeAChE, 8 µM propidium iodide; mean ± SEM, n = 3
T5 construct: AChE from Electrophorus electricus (EeAChE, type VI-S, lyophilized powder); purchased Sigma-Aldrich type VI-S; host or cells: Electrophorus electricus tissue
T5 sequence (O42275 24-633): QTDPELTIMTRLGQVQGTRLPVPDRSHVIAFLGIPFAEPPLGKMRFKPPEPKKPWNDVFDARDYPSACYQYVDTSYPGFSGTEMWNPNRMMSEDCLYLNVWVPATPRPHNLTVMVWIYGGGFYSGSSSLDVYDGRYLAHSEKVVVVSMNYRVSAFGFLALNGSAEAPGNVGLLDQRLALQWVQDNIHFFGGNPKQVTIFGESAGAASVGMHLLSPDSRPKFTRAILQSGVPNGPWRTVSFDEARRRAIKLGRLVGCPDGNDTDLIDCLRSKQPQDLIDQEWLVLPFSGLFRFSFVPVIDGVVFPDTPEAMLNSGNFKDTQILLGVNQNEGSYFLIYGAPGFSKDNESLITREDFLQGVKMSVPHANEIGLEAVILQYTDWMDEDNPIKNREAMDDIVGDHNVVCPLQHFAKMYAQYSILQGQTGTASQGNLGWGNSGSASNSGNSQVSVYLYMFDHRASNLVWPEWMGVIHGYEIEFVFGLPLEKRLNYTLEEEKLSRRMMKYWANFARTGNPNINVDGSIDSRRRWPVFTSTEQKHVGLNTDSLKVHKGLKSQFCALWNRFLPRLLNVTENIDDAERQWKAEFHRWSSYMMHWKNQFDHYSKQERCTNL
Protocol: The compounds were evaluated as potential inhibitors of proaggregation activity of AChE by measuring the displacement of propidium iodide from the PAS of the enzyme [53] using a fluorescence method [28]. AChE from Electrophorus electricus (EeAChE, type VI-S, lyophilized powder, Sigma-Aldrich, St. Louis, MO, USA) was used for consistency with our previous studies [8, 13, 63, 74]. The fluorescence intensity of propidium iodide bound to AChE increases several-fold. A decrease in the fluorescence intensity in the presence of the test compounds is indicative of their ability to bind to the AChE PAS and, correspondingly, to inhibit β-amyloid aggregation.
EeAChE (7 µM) was incubated with 20 µM of the test compound in 1 mM Tris-HCl buffer, pH 8.0, at 25 °C for 15 min. Then a solution of propidium iodide was added (final concentration 8 µM), the mixture was incubated for 15 min, and the fluorescence spectrum was recorded (excitation at 530 nm and emission at 600 nm). […] The blank contained propidium iodide at the same concentration in 1 mM Tris-HCl buffer, pH 8.0 at 25 °C. The measurements were performed in triplicate on a FLUOstar OPTIMA multifunctional microplate reader.
The degree of displacement of propidium iodide from the PAS of AChE (% displacement) was calculated by the equation:% displacement = 100 − (IFAChE + Propidium + inhibitor/IFAChE + Propidium) × 100, where IFAChE + Propidium is the fluorescence intensity of propidium iodide bound to EeAChE in the absence of the test compound (taken as 100%), and IFAChE + Propidium + inhibitor is the fluorescence intensity of propidium iodide bound to EeAChE in the presence of the test compound.

[4] = tested on: isolated rat liver mitochondria; test: Ca2+-induced mitochondrial swelling (MPT pore opening); type: biochemical; settings: 30 µM compound; 12.5 µM Ca2+; 10 mM glutamate, 2 mM malate, 10 mM succinate; percentage relative to the reference compound
Protocol: Experiments were performed using outbred male rats weighing 200–220 g. The animals were housed under standard vivarium conditions in a normal day/night cycle and had ad libitum access to water and food. The procedure of rat euthanasia using carbon dioxide (CO2) inhalation for mitochondria preparation is in compliance with the Guidelines for Animal Experiments, which were approved by the local bioethics committee of the IPAC RAS.
Rat liver mitochondria were isolated by conventional differential centrifugation. Membrane potential of rat liver mitochondria was measured using the potential-sensitive fluorescent probe Safranine A on a Victor 3 multilabel plate reader (Perkin Elmer, Waltham, MA, USA). The fluorescence was recorded at λex = 485 nm and λem = 590 nm. Mitochondrial swelling was measured by spectrophotometry in 96-well clear bottom plates on a Victor 3 microplate reader (Perkin Elmer, Waltham, MA, USA) at 620 nm; CaCl2 was added to induce mitochondrial swelling (MPT opening).

human erythrocyte AChE = target: T6, human erythrocyte AChE (Homo sapiens, UniProt P22303); test: biochemical; settings: mean ± SEM, n = 3; for inhibition at 20 µM: read-out: % of inhibition of AChE with 20 µM concentration of the compound, 20 µM compound
T6 construct: commercial human erythrocyte AChE; purchased Sigma; host or cells: human erythrocytes
T6 sequence (P22303 32-617 isoform P22303-2 limits assumed): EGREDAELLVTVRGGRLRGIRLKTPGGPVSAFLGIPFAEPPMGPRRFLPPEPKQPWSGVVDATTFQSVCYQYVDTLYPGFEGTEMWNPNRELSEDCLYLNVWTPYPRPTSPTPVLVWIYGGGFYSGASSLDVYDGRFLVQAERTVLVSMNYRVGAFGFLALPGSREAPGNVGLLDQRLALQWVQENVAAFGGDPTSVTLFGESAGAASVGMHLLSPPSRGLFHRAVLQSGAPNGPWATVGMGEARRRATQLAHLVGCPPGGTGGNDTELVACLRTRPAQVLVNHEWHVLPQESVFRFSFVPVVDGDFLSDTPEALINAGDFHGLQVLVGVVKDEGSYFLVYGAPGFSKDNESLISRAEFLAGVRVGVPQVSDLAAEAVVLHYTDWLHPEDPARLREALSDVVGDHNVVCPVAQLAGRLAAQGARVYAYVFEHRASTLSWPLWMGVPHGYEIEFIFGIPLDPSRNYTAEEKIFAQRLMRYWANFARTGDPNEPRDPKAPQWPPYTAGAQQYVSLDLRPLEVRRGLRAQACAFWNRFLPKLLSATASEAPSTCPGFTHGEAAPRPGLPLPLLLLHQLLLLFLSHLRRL

| SMILES | Ki [1] [µM] | IC50 (equine serum BChE) [µM] | Increase of the rate of Tb+MAP polymerization, factor [2] | Rate of Tb+MAP Polymerization (dA355/dt) [2] [%] | Ki [3] [µM] | inhibition at 20 µM (porcine liver CES) [%] | % of Displacement of Propidium Iodide from the PAS of EeAChE (PAS of EeAChE) [%] | Rate of Ca2+-Induced Mitochondrial Swelling (dA620/dt) [4] [%] | IC50 (human erythrocyte AChE; 5 min incubation) [µM] | inhibition at 20 µM (human erythrocyte AChE) [%] | IC50 (porcine liver CES; 5 min incubation, mean ± SEM, n = 3) [µM] | inhibition at 20 µM (equine serum BChE; read-out: % of inhibition of BChE with 20 µM concentration of the compound, 20 µM compound) [%] |
| --- | --- | --- | --- | --- | --- | --- | --- | --- | --- | --- | --- | --- |
| CN1CCc2c(c3cc(F)ccc3n2CCNC23CC4CC(CC(C4)C2)C3)C1.Cl.Cl [Compound 4f, N-(2-(8-Fluoro-2-methyl-3,4-dihydro-1H-pyrido[4,3-b]indol-5(2H)-yl)ethyl)adamantane-1-amine dihydrochloride] | 5.4 ± 0.6 | 2.53 ± 0.1 | > 3.5 | 356 ± 14 | 5.1 ± 0.5 | 8.6 ± 1.7 | 17.8 ± 1.5 | 42 ± 8 | 13.6 ± 1.3 | – | – | – |
| CN1CCc2c(c3cc(F)ccc3n2CC(=O)NC23CC4CC(C)(CC(C)(C4)C2)C3)C1.Cl [Compound 8c, N-(3,5-Dimethyladamantan-1-yl)-2-(8-fluoro-2-methyl-3,4-dihydro-1H-pyrido[4,3-b]indol-5(2H)-yl)acetamide hydrochloride] | 80.6 ± 8.5 | 6 ± 0.06 | > 3.5 | 359 ± 25 | 110 ± 10.8 | 8.4 ± 0.9 | – | 63 ± 25 | – | 17.3 ± 0.8 | – | – |
| O=[N+]([O-])c1ccc(OP(=O)(O)Oc2ccc([N+](=O)[O-])cc2)cc1 [BNPP, bis-4-nitrophenyl phosphate, reference compound] | – | – | – | – | – | – | – | – | – | – | 1.8 ± 0.11 | – |
| CN1CCc2c(c3ccccc3n2CC(=O)NC23CC4CC(CC(C4)C2)C3)C1.Cl [Compound 8d, N-(Adamantan-1-yl)-2-(2-methyl-3,4-dihydro-1H-pyrido[4,3-b]indol-5(2H)-yl)acetamide hydrochloride] | 49.5 ± 4.5 | 26.5 ± 0.4 | – | 128 ± 15 | 79.1 ± 7.1 | 8.8 ± 1.2 | 1.4 ± 0.2 | 45 ± 17 | – | 5.4 ± 1 | – | – |
| Cc1ccc2c(c1)c1c(n2CCc2ccc(C)nc2)CCN(C)C1 [dimebon, reference compound] | 50.4 ± 4.3 | – | – | 162 ± 23 | 77.2 ± 5.7 | – | 4.1 ± 0.3 | 36 ± 11 | – | – | – | – |
| CN1CCc2c(c3ccccc3n2CC(=O)NC23CC4CC(C)(CC(C)(C4)C2)C3)C1 [Compound 8a, 3,5-Dimethyladamantan-1-yl)-2-(2-methyl-3,4-dihydro-1H-pyrido[4,3-b]indol-5(2H)-yl)acetamide hydrochloride] | 63.5 ± 5.8 | 9.66 ± 0.52 | – | 237 ± 55 | 113 ± 10.4 | 5.2 ± 1.2 | – | 42 ± 21 | – | 7.1 ± 0.5 | – | – |
| CC12CC3CC(C)(C1)CC(N)(C3)C2 [memantine, reference compound] | – | – | – | 89 ± 7 | – | 3 ± 0.4 | – | 70 ± 9 | – | 1.3 ± 0.2 | – | 13.7 ± 1.5 |
